Source: article PMC6253875, “Synthesis and Evaluation of Non-peptidic Cysteine Protease Inhibitors of P. falciparum Derived from Etacrynic Acid” (Molecules, 2008)

Columns and labels:
P. falciparum strain W2 = settings: read-out: P. f. 3D7/W2, IC50; cited from earlier work
P. falciparum strain 3D7 = experiment: Antiplasmodial activity in vitro, Hoechst-33258 fluorometric assay or parasite lactate dehydrogenase test; type: cell-based; settings: Plasmodium falciparum, 3D7, read-out: P. f. 3D7/W2, IC50
Description: Recombinant falcipain-2 and falcipain-3 were produced as previously described. Inhibitory activities against recombinant falcipain-2 and falcipain-3 were evaluated in fluorometric microplate assays using the substrates Cbz-Phe-Arg-AMC and Cbz-Leu-Arg-AMC (AMC, 7-amino-4-methyl-coumarin). The cysteine protease inhibitor E-64 was used as a positive control. The solvent DMSO was used as negative control. […] The in vitro data for the etacrynic acid derivatives are compared to those of the well known drug chloroquine and to E-64.
IC50 values for inhibition of falcipain-2 and falcipain-3 were determined as described previously using the fluorogenic substrates Cbz-Phe-Arg-AMC and Cbz-Leu-Arg-AMC, respectively (AMC, 7-amino-4 methylcoumarin). As a positive control the well-known cysteine protease inhibitor E-64 [7, 25, 26] and as a negative control the solvent (DMSO) was used. Dose-dependent effects of compounds on parasite development (P. falciparum strain W2) were quantified by flow cytometry according to a previously published method. First, a screening with inhibitor concentrations of […] was performed and the percentage activity of infected red blood cells (RBCs) relative to the negative control was determined. […] Chloroquine and E-64 were used as positive controls, and the solvent DMSO was used as a negative control. For selected compounds assays with the P. falciparum strain 3D7 were performed using a fluorometric assay with Hoechst-33258 [28], or the microculture tetrazolium test measuring parasite lactate dehydrogenase activity. The parasites were cultivated in vitro as described previously. Compounds were screened at concentrations between 1 nM and 100 μM. Synchronized ring stages were plated in 96-well plates at a parasitemia of 1%, in the presence of the compounds (dissolved in DMSO). Incubation of parasites with DMSO alone at a concentration of 0.5% v/v was used as a negative control. IC50 values were calculated by non-linear regression analyses using the programs GaphPad® Prism 4 and GraFit® [31, 32].

IC50 (P. falciparum strain 3D7): 10 ± 4.8 nM
SMILES: CCN(CC)CCCC(C)Nc1ccnc2cc(Cl)ccc12 (centres unmarked) [CQ, chloroquine, reference compound]
IC50 (P. falciparum strain W2): 240 nM
